The target of one series is T1, PSD-95-PDZ2 V229A (Homo sapiens, UniProt P78352, V229A).
T1 construct: measured against recombinantly expressed PSD-95-PDZ2 Ala mutants in FP saturation experiments; 7xHis (N); made in house; host or cells: Escherichia coli B21 pLys
Description: FP saturation assay against PSD-95-PDZ2 Ala mutant V229A. It counts as binding. The following applies: V229A mutation; TAMRA probes. An excerpt: (§1) Protein expression. The pRSET plasmids encoding the (7× His)-PSD-95-PDZ2 wild type and (7× His)-PSD-95-PDZ2-V178C sequences were obtained as described previously.^38 The DNA constructs encoding the PSD-95-PDZ2 mutants (K165A, K168A, F172A, F1721, S173A, N180A, T192A, K193A, H225A, E226A, V229A K233A) were produced using Phusion® site-directed mutagenesis kit on the pRSET plasmid of the wild type PSD-95-PDZ2 and with the primers listed in Table 1. The PSD-95-PDZ2 mutants were transformed and expressed as previously described,^38 in Escherichia coli B21 pLys cells at 37° C. and 0.5 mM isopropyl-D-thiogalactopyranoside (IPTG). […] Protein concentration was measured by NanoDrop 1000 and mass determination of proteins was analyzed using an Agilent 6410 triple quadrupole LC-MS with a Poroshell column, 300SB-C18 2.1×75 mm in a linear gradient of 5% to 60% B, using a binary solvent system [A: H2O/MeCN/TFA, 94.9/5/0.1 and B: H2O/MeCN/TFA, 5/94.9/0.1] with a flow of 0.75 mL min^−1. […] The proteins were analyzed using the following gradient: from 5% to 60% B for 4 min. and from 60 to 100% B from 4 to 4.5 min.
(§2) Fluorescence polarization (FP). […] Fluorescence polarization was measured using a Safire 2 plate reader. […] Then, the polarization was fitted into a one-site binding model using Prism software 8.0 (GraphPad), from which the Kd can be measured. […]

Another series deals with T2, PSD-95-PDZ2 H225A (Homo sapiens, UniProt P78352, H225A).
T2 construct: measured against recombinantly expressed PSD-95-PDZ2 Ala mutants in FP saturation experiments; 7xHis (N); made in house; host or cells: Escherichia coli B21 pLys
T2 sequence (P78352 160-246 limits assumed, stated change not applied): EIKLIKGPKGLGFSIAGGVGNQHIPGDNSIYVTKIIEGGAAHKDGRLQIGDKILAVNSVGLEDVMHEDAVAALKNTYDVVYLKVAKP
The series can be described thus: FP saturation assay against PSD-95-PDZ2 Ala mutant H225A. Format: binding. The note with it: H225A mutation; TAMRA probes.
Description: as §1, §2

In the next series the target is T3, PSD-95-PDZ2 K165A (Homo sapiens, UniProt P78352, K165A).
T3 construct: measured against recombinantly expressed PSD-95-PDZ2 Ala mutants in FP saturation experiments; 7xHis (N); made in house; host or cells: Escherichia coli B21 pLys
T3 sequence (P78352 160-246 limits assumed, stated change not applied): as the sequence (P78352 160-246 limits assumed, stated change not applied) above
The series can be described thus: FP saturation assay against PSD-95-PDZ2 Ala mutant K165A. It counts as binding. The following applies: K165 mutation; TAMRA probes.
Description: as §1, §2

In series [1] the test system is HeLa cells stably expressing HaloGFP.
Description: To assess the cellular permeability and delivery to the cytosol of the compounds as defined herein, the cellular chloroalkane penetration assay (CAPA) may be used (Peraro et al. 2018). This assay takes advantage of a modified haloalkane dehalogenase designed to covalently bind chloroalkane (CA) molecules. A HeLa cell line expressing a fusion protein comprising a HaloTag, a green fluorescent protein (GFP) and a mitochondria-targeting peptide is used to report cytosolic delivery. […] Cells expressing the HaloTag enzyme are incubated with CA-tagged peptides. When these CA-peptides penetrate the cell membrane and reach the cytosol, they will bind to and react with the HaloTag (pulse step). Following a washing step, the cells are incubated with a CA-tagged dye that quantitatively penetrates the cell membrane and reacts with remaining unreacted HaloTag sites (chase step). Flow cytometry is used to measure the fluorescence intensity of the cells and the measured fluorescence is inversely proportional to the amount of CA-peptides that reach the penetrated the cells and can thus be used to assess cytosolic delivery. The obtained data is commonly expressed as CP50 values, the concentration at which 50% cell penetration is observed. […]

Where a SMILES comes first, the peptide text is derived from it. The star is where a group is joined. 5TAMRA = CN(C)c1ccc2c(c1)Oc1cc(N(C)C)ccc1C21OC(=O)c2cc(C(=O)*)ccc21

T1 sequence (P78352 160-246 limits assumed, stated change not applied): as the sequence (P78352 160-246 limits assumed, stated change not applied) above

With `CC[C@H](C)[C@H](NC(=O)[C@H](CO)NC(=O)[C@H](CO)NC(=O)[C@H](CC(C)C)NC(=O)[C@H](CCCCN)NC(=O)c1ccc2c(c1)C(=O)OC21c2ccc(N(C)C)cc2Oc2cc(N(C)C)ccc21)C(=O)N[C@@H](CCC(=O)O)C(=O)N[C@@H](CO)C(=O)N[C@@H](CC(=O)O)C(=O)N[C@H](C(=O)O)C(C)C` [C-terminal GluN2B TAM RA probe] (5TAMRA-KLSSIESDV-OH; N-terminus assumed), the “fold loss in affinity (Kd mutant normalized to PSD-95-PDZ2 WT)” value at PSD-95-PDZ2 V229A was found to be 2 fold; at PSD-95-PDZ2 K165A, 5 fold. Moreover, the “fold decrease in affinity (Kd mutant normalized to PSD-95-PDZ2 WT)” value on PSD-95-PDZ2 H225A came out at 5 fold.

Compound “cyclo-(THLETTFTGDGTP(K-CA)TIRVTQpGQ) [SEQ ID NO: 427]” registered a CP50 in series [1] of 31.1 ± 2.1 µM.

The values above are taken from patent US20230220021A1, “CYCLIC PEPTIDE INHIBITORS OF PSD-95 AND USES THEREOF” (University of Copenhagen, priority 2020, published 2023).
